Data on 86 molecules can be found in a melting point compilation (Tetko et al.; mined from patent text by program, amines drawn as free bases though some values may be those of a salt).

In general, melting point refers to the temperature of the solid-liquid transition.

SMILES strings stand for the structures.

As to `CCC(C)(C)NC(Nc1ccc2c(c1)OCO2)=C(C#N)S(=O)(=O)c1ccc(Cl)cc1`, the melting point fell in the range of 169 to 170 °C. Turning to `CCOC(=O)c1c2ccc(CC(=O)NOCC(=O)N3CCCC3)ccc-2c(C(=O)OCC)c1N`, the melting point was 168 to 170 °C. As for `CC(=O)Nc1nc(C)c(S(=O)(=O)NN2CCN(C)CC2)s1`, the melting point was found to be 245 °C. In the case of `COc1ccc2cc3c(c(-c4ccc5c(c4)OCO5)c2c1OC)CNC3=O`, the melting point was 255 to 256 °C.

`COC(C)(CC(=O)Nc1cccc(OC(=O)NC2CCCCC2)c1)OC`: the melting point is 163 °C. For `COc1ccc2cc([C@H](C)C(=O)OCCCN3C(=O)OC[C@H]3C(C)(C)S)ccc2c1` the value was 118 °C; for `CC(=O)NCCCc1nc2cc(C3=NNC(=O)CC3C)ccc2[nH]1` (stereo unspecified), 244 to 246 °C; for `O=C(Nc1ccc(-n2nc(C(F)(F)F)cc2C(F)(F)F)cc1)c1cc(F)c(F)c(F)c1F`, 138 to 140 °C. In turn, `O=C(NCCc1ccccc1CCl)c1ccc([N+](=O)[O-])cc1` showed a melting point of 126 °C. For the molecule `NC(=O)c1ccccc1C(=O)NCCCN1CCC(c2noc3cc(F)ccc23)CC1`, the melting point was in the range of 129 to 130 °C. The same measure for `CN1CCCC1=NC(=O)Nc1ccccc1`: 140 to 144 °C; for `NC(=O)c1[nH]nnc1O`: 191 to 192 °C. The molecule `CCC(C)(C)c1cc(C(=O)CI)cc(C(C)(C)CC)c1O` showed a melting point of 76 to 77 °C.

`O=C(O)Cc1c(C(=O)O)c2cc(Oc3ccc(C(F)(F)F)cc3)ccc2n1-c1ccc(N2CCOCC2)cc1` returned a melting point of 257 to 259 °C. The same measure for `O=C(C=Cc1ccc(CNCC2CCCC2)cc1)Nc1ccc(-c2ccc(Cl)cc2)cc1`: 209 to 210 °C. Molecule `CC(C)(C)OC(=O)N1CCC2(CC1)CC(c1ccc(Cl)cc1)=NO2` yielded a melting point of 138 to 141 °C. For `CC(=O)NC[C@@H]1C[C@H]1c1cccc2nn(C)c(F)c12` (relative stereo) the value was 109 to 111 °C; for `COc1ccc(NC(=O)NC2N=C(c3ccccc3)c3ccccc3N(C)C2=O)cc1` (stereo unspecified), 261 to 263 °C. For `CCOC(=O)C1C(C=C(Br)Br)C1(C)C` (stereo unspecified), the melting point turned out to be 110 °C. Turning to `CCN(CC)c1cccc(-c2ccc(C(=O)O)c(=O)[nH]2)c1`, the melting point lay in the range of 256 to 258 °C. In the case of `CC1(C)CC(C)(O)C2CCC2(C)C1` (stereo unspecified), the melting point lay within 54 to 55 °C. The same measure for `c1ccc(COc2ccc(-c3nc4cccc(OCc5ccccc5)c4[nH]3)cc2C23CC4CC(CC(C4)C2)C3)cc1`: 109 to 111 °C; for `CCCCCCCC/C=C\CCCCCCCC1=C(O)C(=O)C=C(OC)C1=O`: 69.5 to 70.5 °C.

In the case of `CCCC(=O)Nc1c(C)c(C)c2c(c1C)CC(C)(C)O2`, the melting point was in the range of 136 to 138 °C. The same measure for `COC(=O)NC1CN(C(=O)c2cc(OC)c(OC)c(OC)c2)CCN1C(=O)C1=Cc2cc(OC)c(OC)cc2CCC1` (stereo unspecified): 143 to 145 °C. For the molecule `Cc1cc(C(=O)N2Cc3ccc(C(=O)N(CCCN(C)C)CCCN(C)C)n3Cc3ccccc32)ccc1-c1ccccc1C(F)(F)F`, the melting point is 55 to 64 °C. `N#Cc1c(Nc2cccc(Cl)c2)nn(Cc2ccccc2)c1N` yielded a melting point of 234 to 236 °C. For `COCC(=O)N(C)c1ccc(NC(=O)[C@H]2C[C@@H](O)CN2C(=O)Nc2ccc(Cl)cc2)cc1`, the melting point worked out at 84 °C. For the molecule `COc1ccc(Cc2nc(S)[nH]c2Cc2ccc(OC)cc2)cc1`, the melting point was determined as 270 °C.

`COC(=O)CC(C)C1CCC2C3CC=C4CC(O)CC(O)C4(C)C3CCC12C` (stereo unspecified) showed a melting point of 144 to 146 °C. In turn, `CC(C)=NOCC(=O)O` returned a melting point of 76 °C. `CCN(CC)CC(O)Cn1ccnc1[N+](=O)[O-]` (stereo unspecified) displayed a melting point of 92 to 93 °C. The same measure for `CCCCc1nc(C(C)(O)CC)c(C(=O)O)n1Cc1ccc(-c2ccccc2-c2nnn[nH]2)cc1` (stereo unspecified): 152 to 154 °C; for `C1=CC2(c3ccccc3CP(Cc3ccccc3)Cc3ccccc3)OC2(CP(Cc2ccccc2)Cc2ccccc2)C2OC12` (stereo unspecified): 203 to 205 °C.

For `CCn1cc(Cc2ccc(C(=O)OC)cc2OC)c2cc(NC(=O)CC3CCCC3)ccc21`, the melting point lay within 144 to 146 °C.

`CC(C)(C)OC(=O)N[C@H]1CN(N=C(c2ccccc2)c2ccccc2)C1=O` returned a melting point of 167 to 170 °C. As to `CSc1ccc(-c2nc(SC)c(C#N)c(=O)n2-c2ccc(C)cc2C)cc1`, the melting point fell in the range of 203 to 205 °C. `CCC(=O)c1cccc(C(N)=O)c1`: the melting point was in the range of 121 to 122 °C.

As for `Cc1oc2c(C)c(C)c(NCc3ccc(F)cc3)c(C)c2c1-c1ccccc1`, the melting point lay in the range of 135 to 136 °C.

Molecule `O=C1Nc2cc(Cl)ccc2C(=O)C1c1cccnc1` (stereo unspecified) yielded a melting point greater than 340 °C.

The molecule `CCCN(CCC)c1ccccc1C(C)C(C(N)=O)c1ccc(C(=O)O)cc1` (stereo unspecified) registered a melting point of 175 to 178 °C. For the molecule `O=C1c2cccc3cccc(c23)C(=O)N1CCN1CCC(O)(c2ccccc2)CC1`, the melting point lay in the range of 177 to 179 °C.

`COc1cc(NC(C)=O)c([N+](=O)[O-])cc1C(=O)O` displayed a melting point of 186 to 188 °C. `OCc1cc(-c2cnn3c(C(F)(F)F)cc(-c4ccc(Cl)c(Cl)c4)nc23)ccn1`: the melting point came to 233 °C.

As for `COC(=O)c1ccc(-c2nc(-c3ccc(C(C)C)cc3)cs2)cc1`, the melting point lay in the range of 134 to 135 °C.

On to `CCCCN1C(=O)NC(=Cc2cccs2)C1=O`, for which the melting point was found to be 140 °C. The molecule `CC(C)Cn1c(=O)n(C)c(=O)c2c(SCCN(C)C)n(Cc3cccc4ccccc34)cc21` had a melting point of 140 to 144 °C.

On to `CSc1cc(C)nc(SC)c1NC(=O)CN1CCN(CCSc2nc3ccccc3o2)CC1`, for which the melting point lay within 140 to 141 °C. For `O=C(OCCCCCCc1ccc(OCc2ccc(Cl)cc2)cc1)c1cccnc1` the value was 66 to 67 °C; for `O=C(Cc1ccccc1)Nc1cnc2ccccc2c1O`, 253 to 255 °C; for `c1ccc([C@H]2C[C@@H]2Nc2cc(-c3ccco3)nc(-c3nccs3)n2)cc1` (relative stereo), 90 to 91.9 °C. The same measure for `COc1cccc([Si](C)(C)COc2cc(C(C)(C)C)c(O)c(C(C)(C)C)c2)c1OC`: 94.5 to 96 °C; for `N#CNc1ccccc1-c1ccc(Cl)cc1`: 106 to 107 °C.

Consider `Cn1nc(CO)nc1NCCCCOc1cccc(CN2CCCCC2)c1`, for which the melting point lay within 82 to 83 °C. Consider `N#CCc1cc(Cl)cc(Cl)c1`, for which the melting point was 31 to 32 °C. For the molecule `C=CCNc1nc(N)nc(-c2ccccc2)c1-c1ccc(=O)n(C(C)C)n1`, the melting point stood at 192 °C. On to `CCc1ccc2c(c1)OC1(O)c3cccc([N+](=O)[O-])c3C(=O)C21O` (stereo unspecified), for which the melting point is 110 to 120 °C.

The molecule `CCC(Oc1ccc2c(-c3ccc(Cl)cc3)noc2c1)C(=O)O` (stereo unspecified) displayed a melting point of 144 °C. In turn, `CC1(C)OC(=O)Nc2ccc(-c3cccc(CC#N)n3)cc21` showed a melting point of 210 to 212 °C. In the case of `N#Cc1ccc(CN2CCCNC2=C[N+](=O)[O-])cn1`, the melting point lay within 214 to 216 °C. `Oc1ccc2nc(CCl)oc2c1`: the melting point was 148 to 154 °C.

Regarding `CCCCCCCCCCn1c(=S)nc2cc(Cl)ccn2c1=S`, the melting point was in the range of 153 to 155 °C. `O=c1ccc(-c2ccc(Cl)cc2)n[nH]1` displayed a melting point of 175 to 176 °C. Take `CCOC(=O)c1ncn2c1CN(Cc1ccc(OC)cc1OC)C(=O)c1sccc1-2`: the melting point is 168 °C.

The molecule `COc1ccc2c(c1)c(=O)c(-c1nnnn1C)cn2C` displayed a melting point of 280 to 283 °C. As for `C[C@H](N[C@@H](CCc1ccccc1)C(=O)O)C(=O)N1C(=O)N(C)C[C@H]1C(=O)O`, the melting point amounted to 240 °C. `Cn1cc(C(=O)C(Cl)Cl)c(=O)c(-c2cccc(F)c2)c1` showed a melting point of 183 to 184 °C. Molecule `CCOC(=O)COc1cccc(NC(=O)NC2N=C(c3ccccc3F)c3ccccc3N(CC(=O)N3CC4CCC(CC4)C3)C2=O)c1` (racemic) gave a melting point of 156 to 158 °C. `CC(C)c1nc(-c2cccs2)cc(-c2ccc(F)cc2)c1C=O` displayed a melting point of 123 to 125 °C. Turning to `CC(C)(C)NCC(O)COc1ccc2c(=O)cc(-c3ccc(OCc4ccccc4)c(OCc4ccccc4)c3)oc2c1` (stereo unspecified), the melting point lay within 159 to 161 °C. Regarding `CCOC(=O)c1nc(-c2ccc([N+](=O)[O-])cc2)[nH]c1-c1ccc(OCC)cc1`, the melting point was 214 to 217 °C. The molecule `C[C@H](CO)Nc1nc(SCc2cccc(F)c2F)nc2[nH]c(=O)c(NCc3ccccc3)nc12` gave a melting point of 80 to 100 °C. Regarding `O=C(O)c1ccc2c(c1)Nc1ccccc1S2`, the melting point was greater than 235 °C. In the case of `COC1=C(OC)C(=O)C(CO)=C(C)C1=O`, the melting point is 52 to 54 °C. `CCOC(=S)Nc1nc(OCc2ccc(F)cc2)ncc1F` came in with a melting point of 109 to 119 °C.

Turning to `O=C(c1ccccc1)N1CCc2[nH]c3c(-c4ccccc4)cccc3c2CC1`, the melting point fell in the range of 198 to 200 °C.

`COc1cc2c(c(Cl)c1Cl)C(=O)C(C)(c1ccc(Cl)cc1)C2` (stereo unspecified) returned a melting point of 176 to 178 °C. Regarding `CC(C)(C)c1ccc(C(NC(=O)c2c(F)cccc2F)N2CCOCC2)cc1` (stereo unspecified), the melting point fell in the range of 199 to 200 °C. Consider `CCC(=O)Nc1nc2ccc(Cl)cc2n2c(CC)nnc12`, for which the melting point was in the range of 212 to 215 °C. Molecule `COCc1ccc(Oc2cc(OC3CCOCC3)c3[nH]c(C4=NCC(CC(C)(C)O)S4)cc3c2)cn1` (stereo unspecified) registered a melting point of 108 to 110 °C.

Turning to `CCc1nc(C)n(COCc2ccccc2)c1Sc1ccccc1`, the melting point lay in the range of 156 to 159 °C. The same measure for `Cc1ccc(C2NC(C(=O)O)C(C)(C)S2)cc1` (stereo unspecified): 89 to 90 °C; for `CN1CCN(Cc2nnc3n2-c2ccc(Cl)cc2C(c2ccccc2)=NC3)CC1`: 203 to 206 °C; for `Cc1cncc(CNC(=O)c2sc(N3CCN(CCCC(F)(F)F)C3=O)nc2C)n1`: 123 °C. Regarding `O=c1[nH]c2ccccc2n2cnc(-c3ccc(F)cc3)c12`, the melting point is greater than 300 °C. For `COC(=O)c1cc(C2(c3ccc(F)c(-c4cncnc4)c3)N=C(N)N(C)C2=O)cn1CCF` (stereo unspecified), the melting point was in the range of 88 to 90 °C.
